Experimental data published in PubChem BioAssay (NCI).
Several values for one entry are separate records, joined by “and”; a condition that tells them apart may be missing. Equal entries are not always repeated.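 Each compound was tested at five concentrations against cells in 96-well plates for 48 hours. At the GI50, growth is halved. TGI denotes the concentration required for complete inhibition of growth.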

Assays:
Assay in all cases: growth of human tumour cells (NCI), 48 h
[1] = tested on: A498 renal
[2] = tested on: HOP-62 NSCLC
[3] = tested on: IGROV1 ovarian
[4] = tested on: MALME-3M melanoma
[5] = tested on: MDA-MB-435
[6] = tested on: OVCAR-4 ovarian
[7] = tested on: RXF 393 renal
[8] = tested on: SK-MEL-28 melanoma
[9] = tested on: SK-OV-3 ovarian
[10] = tested on: SW-620 colon

Row | SMILES | GI50 [1] | TGI [1] | GI50 [2] | TGI [2] | GI50 [3] | TGI [3] | GI50 [4] | TGI [4] | GI50 [5] | TGI [5] | GI50 [6] | TGI [6] | GI50 [7] | TGI [7] | GI50 [8] | TGI [8] | GI50 [9] | TGI [9] | GI50 [10] | TGI [10]
1 | CN1CCN(Cc2ccc(NC(=O)c3[nH]ncc3Nc3ncnc4c3CCC4)cc2)CC1 | 1.6 µM | 4.45 µM | 2.69 µM | 11.5 µM | 1.45 µM | 14.6 µM | 3.26 µM | 8.06 µM | 1.8 µM | 12.3 µM | 1.49 µM | 6.67 µM | 1.4 µM | 3.23 µM | 2.61 µM | 13.1 µM | 0.185 µM | 17.5 µM | 0.836 µM | 10.3 µM
2 | O=[N+]([O-])c1cc(Br)cc2c1[nH]c1ccc(Br)cc12 | 6.86 µM | 81.8 µM | 2.11 µM | 5 µM | 2.74 µM | 38.7 µM | 10.8 µM | 66.3 µM | 20.6 µM | > 100 µM | 2.48 µM | 8.47 µM | 5.04 µM | 20.9 µM | 39 µM | > 100 µM | 3.59 µM | 15.4 µM | 7.97 µM | > 100 µM
3 | N#CSCC1CC(O)(c2ccccc2)C(c2ccccc2)C(c2ccc(F)cc2)O1 (stereo not given) | 18.1 µM | 45.9 µM | 8.81 µM | 24.3 µM | 1.69 µM | 7.6 µM | 2.08 µM | 5.02 µM | 1.99 µM | 4.9 µM | 2.84 µM | 10.9 µM | 2.22 µM | 4.4 µM | 2.93 µM | 8.79 µM | 28.6 µM | > 90.6 µM | 3.02 µM | 10 µM
4 | Cc1cc(N/N=C/c2nc(-c3ccccc3)oc2C)c2cc(Cl)ccc2n1 | 3.2 µM | 18.1 µM | 1.85 µM | 3.66 µM | 1.68 µM | 3.32 µM | 1.94 µM | 3.51 µM | 1.78 µM | 3.26 µM | 1.85 µM | 3.53 µM | 1.7 µM | 3.42 µM | 1.71 µM | 3.16 µM | 1.75 µM | 3.29 µM | 1.81 µM | 3.7 µM
5 | CN(/N=N/c1nc(OCc2ccccc2)c2[nH]cnc2n1)C(=O)N(C)/N=N/c1nc(OCc2ccccc2)c2[nH]cnc2n1 | 19.7 µM | 54 µM | 96.1 µM | > 100 µM | 34.9 µM | > 100 µM | 40.8 µM | > 100 µM | 49.1 µM | > 100 µM | > 100 µM | > 100 µM | 79.9 µM | > 100 µM | > 100 µM | > 100 µM | 42.1 µM | > 100 µM | 71.7 µM | > 100 µM
6 | Cc1c(CN2CCC(Nc3ncnc4sc(CC(F)(F)F)cc34)CC2)ccc2c1cc(C#N)n2Cc1cn[nH]c1 | 7.55 µM | 79.4 µM and > 39.1 µM | 3.38 µM and 5.46 µM | 22 µM and > 44.6 µM | 5.23 µM and 23.8 µM | 26.1 µM and > 100 µM | 1.31 µM and 2.77 µM | 2.95 µM and 15.3 µM | 1.99 µM and 3.78 µM | 6.15 µM | 2.2 µM and 1.77 µM | 22.3 µM | 1.94 µM and 2.74 µM | 12.9 µM and 10.5 µM | 2.2 µM and 5 µM | 6.28 µM | 10 µM and > 24.1 µM | > 47.4 µM | 1.81 µM and 2.19 µM | 4.97 µM
7 | COc1ccc(C2=C(c3cn(C)c4ccccc34)C(=O)NC2=O)cc1OC | 3.43 µM | 8.95 µM | 11.8 µM | > 25 µM | 7.99 µM | > 25 µM | > 25 µM | > 25 µM | 1.1 µM | > 25 µM | 10.6 µM | > 25 µM | 6.44 µM | > 25 µM | 16.8 µM | > 25 µM | 6.72 µM | > 25 µM | 6.96 µM | > 25 µM
8 | CCOc1cc2ncc(C#N)c(Nc3ccc(F)c(Cl)c3)c2cc1NC(=O)/C=C/CN(C)C | 0.145 µM | 0.799 µM | 1.27 µM | > 10 µM | 0.0269 µM | 0.466 µM | 0.36 µM | 1.87 µM | 0.323 µM | 1.42 µM | 0.235 µM | 4.1 µM | 0.255 µM | 3.46 µM | 1.08 µM | > 4.73 µM | 0.022 µM | 0.139 µM | 0.485 µM | 3.23 µM
9 | COc1cc(-c2cn(-c3ccc(Cl)cc3)c(=O)[nH]2)cc(OC)c1OC | > 100 µM | > 100 µM | > 100 µM | > 100 µM | > 100 µM | > 100 µM | > 100 µM | > 100 µM | > 100 µM | > 100 µM | > 100 µM | > 100 µM | > 100 µM | > 100 µM | > 100 µM | > 100 µM | > 100 µM | > 100 µM | > 100 µM | > 100 µM
10 | Cc1ccc2c(=O)[nH]sc2c1 |  | > 100 µM |  | 36.7 µM |  | 35.3 µM |  | 45.6 µM |  | 27.6 µM |  | > 100 µM |  | 28.6 µM |  | 38.4 µM |  | > 100 µM |  | 33.2 µM
11 | Cc1cc(-c2nc3ccc(O)cc3s2)ccc1N | 41.3 µM | > 100 µM | 31.1 µM | > 100 µM | 47.5 µM | > 100 µM | 82.8 µM | > 100 µM | 88.3 µM | > 100 µM | 37.2 µM | > 100 µM | 30.5 µM | > 100 µM | 64.9 µM | > 100 µM | 36.9 µM | > 100 µM | 66.8 µM | > 100 µM
12 | O=C1C(Cl)=C(N2CCOCC2)C(=O)c2ccccc21 | 11.2 µM | 24.3 µM | 17.4 µM | 31.3 µM | 3.33 µM | 6.74 µM | 2.55 µM | 4.85 µM | 1.95 µM | 3.72 µM | 1.61 µM | 3.02 µM | 1.85 µM | 3.26 µM | 2.69 µM | 6.32 µM | 18.3 µM | 32.2 µM | 1.76 µM | 3.51 µM
13 | COc1cc2c(OC)c(c1)CCCC1=CC(=O)C=C(CCC2)C1=O |  | > 100 µM |  | > 100 µM |  | > 100 µM |  | 75.8 µM |  | 56.2 µM |  | 31.1 µM |  | 76.7 µM |  | > 100 µM |  | > 100 µM |  | > 77 µM
14 | Cn1c(=O)c2[nH]c(COCc3nc4c([nH]3)c(=O)n(C)c(=O)n4C)nc2n(C)c1=O |  | > 100 µM |  | > 100 µM |  | > 100 µM |  | > 100 µM |  | > 100 µM |  | > 100 µM |  | > 100 µM |  | > 100 µM |  | > 100 µM |  | > 100 µM
